The results in this text go back to paper PMC11477289, “Low-Basicity 5-HT6 Receptor Ligands from the Group of Cyclic Arylguanidine Derivatives and Their Antiproliferative Activity Evaluation” (International Journal of Molecular Sciences, 2024).

Read-outs that look alike come from different tables or passages of the source.

One data set concerns the target T1, human 5-HT6 (Homo sapiens, UniProt P50406).
T1 construct: expressed in transfected cells
The experiment in a line: [3H]-LSD radioligand binding assay, 5-HT6R. The settings on record: HEK293 expressing human 5-HT6R. How it is done:
Next, the ligands’ affinity for the 5-HT6 receptors was evaluated in the [^3H]-LSD radioligand binding assay. Experiments were performed in a stable HEK293 cell line expressing the human 5-HT6R.
The pellets were stored at −80 °C.

Data set [1] can be described thus: Chromatographic hydrophobicity index on C18 column (lipophilicity). In kind it is physicochemical.
A short description of data set [2]: Affinity to phospholipids, IAM column (CHI IAM). Format: physicochemical. The conditions noted are these: IAM.PC.DD2 column, pH 7.4.

T1 sequence (P50406 whole entry): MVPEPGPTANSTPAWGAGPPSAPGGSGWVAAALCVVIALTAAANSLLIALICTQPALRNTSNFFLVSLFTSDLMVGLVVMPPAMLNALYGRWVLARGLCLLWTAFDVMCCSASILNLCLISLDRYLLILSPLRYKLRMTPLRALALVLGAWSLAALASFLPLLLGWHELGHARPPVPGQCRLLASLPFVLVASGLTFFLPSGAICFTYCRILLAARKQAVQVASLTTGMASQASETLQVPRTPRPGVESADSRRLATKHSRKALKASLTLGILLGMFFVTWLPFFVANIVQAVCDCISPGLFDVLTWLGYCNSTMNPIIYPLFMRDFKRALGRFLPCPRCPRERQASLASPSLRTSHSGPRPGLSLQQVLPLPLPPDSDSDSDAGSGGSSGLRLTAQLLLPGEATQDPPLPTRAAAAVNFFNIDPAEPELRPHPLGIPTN

With `O=S(=O)(NC1=Nc2ccccc2CN1)c1ccc(F)c(F)c1` [PR 15, N -(3,4-dihydroquinazolin-2-yl)-3,4-difluorobenzene-1-sulfonamide], on human 5-HT6 (read-out: 5-HT6 Ki), the Ki amounted to 5270 ± 1330 nM.

`O=S(=O)(NC1=Nc2cc(F)ccc2CN1)c1cccc2ccccc12` [PR 56, N -(7-fluoro-3,4-dihydroquinazolin-2-yl)naphthalene-1-sulfonamide]: the melting point is 222 to 226 °C. For the same molecule, at human 5-HT6 (read-out: 5-HT6 Ki), the Ki was found to be 876 ± 201 nM. In data set [1], the “CHI C18 pH 2.6” value worked out at 91.0, the “CHI C18 pH 7.4” value came to 89.0 and the “CHI C18 pH 10.5” value stood at 95.4. Also, the “CHI IAM” value in data set [2] amounted to 40.5.

Regarding `COc1cccc(S(=O)(=O)NC2=Nc3ccccc3CN2)c1` [PR 24, N -(3,4-dihydroquinazolin-2-yl)-3-methoxybenzene-1-sulfonamide], the melting point lay within 108 to 114 °C. For the same molecule, the Ki at human 5-HT6 (read-out: 5-HT6 Ki) turned out to be 906 ± 227 nM. Besides, in data set [1], the “CHI C18 pH 2.6” value stood at 74.1, the “CHI C18 pH 7.4” value came to 74.5 and the “CHI C18 pH 10.5” value was 75.5. In addition, the “CHI IAM” value in data set [2] amounted to 31.4.

As for `O=S(=O)(NC1=Nc2ccc(F)cc2CN1)c1cccc2ccccc12` [PR 55, N -(6-fluoro-3,4-dihydroquinazolin-2-yl)naphthalene-1-sulfonamide], the melting point lay within 206 to 210 °C. For the same molecule, the inhibition constant (Ki) on human 5-HT6 (read-out: 5-HT6 Ki) was 1790 ± 412 nM.

In the case of `Nc1nc2ccccc2n1S(=O)(=O)c1ccccc1` [PR 1, 1-(benzenesulfonyl)-1H-1,3-benzodiazol-2-amine], on human 5-HT6 (read-out: 5-HT6 Ki), the Ki amounted to 2160 ± 539 nM.

As to `CN(c1nc2ccccc2n1C)S(=O)(=O)c1ccc2ccccc2c1` [PR 12, N -methyl-N-(1-methyl-1H-1,3-benzodiazol-2-yl)naphthalene-2-sulfonamide], the Ki on human 5-HT6 (read-out: 5-HT6 Ki) amounted to 41900 ± 10500 nM.

In the case of `O=S(=O)(NC1=Nc2cccc(Cl)c2CN1)c1c(Cl)ccc2ccccc12` [PR 52, 2-chloro-N-(5-chloro-3,4-dihydroquinazolin-2-yl)naphthalene-1-sulfonamide], the melting point was 267 to 270 °C. Further, the Ki at human 5-HT6 (read-out: 5-HT6 Ki) was 133 ± 33 nM.

With `Nc1nc2cc(Cl)ccc2n1S(=O)(=O)c1cccc2ccccc12` [PR 6, 5-chloro-1-(naphthalene-1-sulfonyl)-1H-1,3-benzodiazol-2-amine], at human 5-HT6 (read-out: 5-HT6 Ki), the Ki was found to be 704 ± 176 nM.

`Nc1nc2ccccc2n1S(=O)(=O)c1cccc2ccccc12` [PR 3, 1-(naphthalene-1-sulfonyl)-1H-1,3-benzodiazol-2-amine]: the inhibition constant Ki at human 5-HT6 (read-out: 5-HT6 Ki) turned out to be 148 ± 37 nM.

`CN(C)c1cccc2c1CNC(NS(=O)(=O)c1cccc3ccccc13)=N2` [PR 63, N -[5-(dimethylamino)-3,4-dihydroquinazolin-2-yl]naphthalene-1-sulfonamide]: the Ki on human 5-HT6 (read-out: 5-HT6 Ki) stood at 151 ± 35 nM.

For the molecule `Cc1c(S(=O)(=O)n2c(N)nc3ccccc32)sc2ccc(F)cc12` [PR 7, 1-[(5-fluoro-3-methyl-1-benzothiophen-2-yl)sulfonyl]-1H-1,3-benzodiazol-2-amine], at human 5-HT6 (read-out: 5-HT6 Ki), the Ki is 2950 ± 737 nM.

Regarding `O=S(=O)(NC1=Nc2ccccc2CN1)c1ccc(-c2ccccc2)cc1` [PR 26, N -(3,4-dihydroquinazolin-2-yl)-[1,1′-biphenyl]-4-sulfonamide], the Ki at human 5-HT6 (read-out: 5-HT6 Ki) amounted to 4310 ± 1080 nM.

Regarding `N#Cc1cccc(S(=O)(=O)n2c(N)nc3ccccc32)c1` [PR 2, 3-[(2-amino-1H-1,3-benzodiazol-1-yl)sulfonyl]benzonitrile], on human 5-HT6 (read-out: 5-HT6 Ki), the Ki turned out to be 49200 ± 1230 nM.

As to `Nc1nc2ccccc2n1S(=O)(=O)c1csc2ccccc12` [PR 8, 1-(1-benzothiophene-3-sulfonyl)-1H-1,3-benzodiazol-2-amine], the melting point fell in the range of 192 to 195 °C. Besides, the affinity at human 5-HT6 (5-HT6 Ki), expressed as Ki, was 133 ± 33 nM. Further, in data set [1], the “CHI C18 pH 2.6” value was 89.8, the “CHI C18 pH 7.4” value is on record as 90.3 and the “CHI C18 pH 10.5” value is on record as 91.0. The “CHI IAM” value in data set [2] is listed as 40.3.

`O=S(=O)(NC1=Nc2cc(Cl)ccc2CN1)c1ccc2ccccc2c1` [PR 33, N -(7-chloro-3,4-dihydroquinazolin-2-yl)naphthalene-2-sulfonamide] gave a melting point of 220 to 222 °C. Further, the Ki on human 5-HT6 (read-out: 5-HT6 Ki) is 1960 ± 434 nM. In data set [1], the “CHI C18 pH 2.6” value worked out at 98.3, the “CHI C18 pH 7.4” value is listed as 96.4 and the “CHI C18 pH 10.5” value is 99.9. For the same molecule, the “CHI IAM” value in data set [2] came out at 44.9.

`O=S(=O)(NC1=Nc2ccccc2CN1)c1ccc(C(F)(F)F)cc1` [PR 16, N -(3,4-dihydroquinazolin-2-yl)-4-(trifluoromethyl)benzene-1-sulfonamide]: the Ki on human 5-HT6 (read-out: 5-HT6 Ki) was found to be 5100 ± 1270 nM.

The molecule `COc1ccc(Cl)cc1S(=O)(=O)NC1=Nc2ccccc2CN1` [PR 25, 5-chloro-N-(3,4-dihydroquinazolin-2-yl)-2-methoxybenzene-1-sulfonamide] registered a melting point of 157 to 165 °C. On human 5-HT6 (read-out: 5-HT6 Ki), the Ki is 4640 ± 1160 nM. For the same molecule, in data set [1], the “CHI C18 pH 2.6” value stood at 82.8, the “CHI C18 pH 7.4” value was found to be 81.0 and the “CHI C18 pH 10.5” value is recorded as 83.0. The “CHI IAM” value in data set [2] is 35.3.

For `CC1NC(NS(=O)(=O)c2cccc3ccccc23)=Nc2ccc(Cl)cc21` (centres unmarked) [PR 69, N -(6-chloro-4-methyl-3,4-dihydroquinazolin-2-yl)naphthalene-1-sulfonamide], the melting point was 144 to 153 °C. At human 5-HT6 (read-out: 5-HT6 Ki), the inhibition constant (Ki) was determined as 372 ± 93 nM.

Consider `O=S(=O)(NC1=NCc2ccccc2N1)c1ccc2ccccc2c1` [PR 29, N -(3,4-dihydroquinazolin-2-yl)naphthalene-2-sulfonamide], for which the Ki on human 5-HT6 (read-out: 5-HT6 Ki) was found to be 3630 ± 909 nM.

Molecule `CC1NC(NS(=O)(=O)c2cccc3ccccc23)=Nc2c(Cl)cc(Cl)cc21` (centres unmarked) [PR 72, N -(6,8-dichloro-4-methyl-3,4-dihydroquinazolin-2-yl)naphthalene-1-sulfonamide] gave a melting point of 109 to 116 °C. Further, on human 5-HT6 (read-out: 5-HT6 Ki), the inhibitory constant (Ki) is 997 ± 249 nM. Moreover, in data set [1], the “CHI C18 pH 2.6” value worked out at 114.1, the “CHI C18 pH 7.4” value amounted to 111.3 and the “CHI C18 pH 10.5” value is listed as 116.7. Further, the “CHI IAM” value in data set [2] turned out to be 49.3.

Consider `O=S(=O)(Nc1nc2ccccc2[nH]1)c1ccccc1` [PR 10, N -(1H-1,3-benzodiazol-2-yl)benzenesulfonamide], for which the Ki at human 5-HT6 (read-out: 5-HT6 Ki) was determined as 1720 ± 429 nM.

Regarding `CC1NC(NS(=O)(=O)c2ccc3ccccc3c2)=Nc2ccc(Cl)cc21` (centres unmarked) [PR 35, N -(6-chloro-4-methyl-3,4-dihydroquinazolin-2-yl)naphthalene-2-sulfonamide], the inhibition constant Ki at human 5-HT6 (read-out: 5-HT6 Ki) is 2380 ± 593 nM.

Take `CC1NC(NS(=O)(=O)c2ccc3ccccc3c2)=Nc2ccccc21` (centres unmarked) [PR 34, N -(4-methyl-3,4-dihydroquinazolin-2-yl)naphthalene-2-sulfonamide]: the Ki on human 5-HT6 (read-out: 5-HT6 Ki) was found to be 702 ± 152 nM.

For the molecule `O=S(=O)(NC1=Nc2ccc(Cl)cc2CN1)c1ccccc1` [PR 27, N -(6-chloro-3,4-dihydroquinazolin-2-yl)benzenesulfonamide], the inhibition constant (Ki) on human 5-HT6 (read-out: 5-HT6 Ki) worked out at 1690 ± 422 nM.

`O=S(=O)(NC1=Nc2ccccc2CN1)c1cccc2cccc(Cl)c12` [PR 45, 8-chloro-N-(3,4-dihydroquinazolin-2-yl)naphthalene-1-sulfonamide] had a melting point of 103 to 105 °C. For the same molecule, the Ki on human 5-HT6 (read-out: 5-HT6 Ki) was 736 ± 169 nM.

The molecule `COc1ccc2c(c1)CNC(NS(=O)(=O)c1cccc3ccccc13)=N2` [PR 59, N -(6-methoxy-3,4-dihydroquinazolin-2-yl)naphthalene-1-sulfonamide] came in with a melting point of 263 to 266 °C. For the same molecule, at human 5-HT6 (read-out: 5-HT6 Ki), the Ki was 1960 ± 452 nM. Further, in data set [1], the “CHI C18 pH 2.6” value came to 84.9, the “CHI C18 pH 7.4” value is listed as 85.0 and the “CHI C18 pH 10.5” value turned out to be 88.4. Further, the “CHI IAM” value in data set [2] worked out at 38.2.

In the case of `Nc1nc2ccccc2n1S(=O)(=O)c1ccc2ccccc2c1` [PR 4, 1-(naphthalene-2-sulfonyl)-1H-1,3-benzodiazol-2-amine], the Ki on human 5-HT6 (read-out: 5-HT6 Ki) came out at 330 ± 83 nM.

Consider `O=S(=O)(NC1=Nc2ccc(N3CCOCC3)cc2CN1)c1cccc2ccccc12` [PR 65, N -[6-(morpholin-4-yl)-3,4-dihydroquinazolin-2-yl]naphthalene-1-sulfonamide], for which the melting point lay in the range of 278 to 281 °C. Besides, at human 5-HT6 (read-out: 5-HT6 Ki), the inhibition constant Ki was found to be 4700 ± 1080 nM.

Regarding `O=S(=O)(NC1=NCc2cc(Cl)ccc2N1)c1ccc2ccccc2c1` [PR 32, N -(6-chloro-3,4-dihydroquinazolin-2-yl)naphthalene-2-sulfonamide], the Ki at human 5-HT6 (read-out: 5-HT6 Ki) came out at 948 ± 212 nM.

Turning to `O=S(=O)(NC1=Nc2ccccc2CN1)c1c(Cl)cccc1Cl` [PR 22, 2,6-dichloro-N-(3,4-dihydroquinazolin-2-yl)benzene-1-sulfonamide], the melting point fell in the range of 168 to 174 °C. In addition, at human 5-HT6 (read-out: 5-HT6 Ki), the Ki stood at 1460 ± 364 nM.

Consider `Nc1nc2ccccc2n1S(=O)(=O)c1ccc2c(c1)CC(=O)N2` [PR 5, 5-[(2-amino-1H-1,3-benzodiazol-1-yl)sulfonyl]-2,3-dihydro-1H-indol-2-one], for which the Ki at human 5-HT6 (read-out: 5-HT6 Ki) stood at 14800 ± 3690 nM.

`O=S(=O)(NC1=NCCc2ccccc2N1)c1ccc2ccccc2c1` [PR 38, N -(4,5-dihydro-1H-1,3-benzodiazepin-2-yl)naphthalene-2-sulfonamide] returned a melting point of 175 to 180 °C. On human 5-HT6 (read-out: 5-HT6 Ki), the Ki was 1410 ± 331 nM.

Take `O=S(=O)(NC1=NCc2ccccc2N1)c1ccccc1` [PR 13, N-(3,4-dihydroquinazolin-2-yl)benzenesulfonamide]: the inhibition constant (Ki) at human 5-HT6 (read-out: 5-HT6 Ki) turned out to be 2610 ± 651 nM.

Turning to `O=S(=O)(NC1=Nc2ccccc2CN1)c1cccc(Cl)c1Cl` [PR 20, 2,3-dichloro-N-(3,4-dihydroquinazolin-2-yl)benzene-1-sulfonamide], the Ki on human 5-HT6 (read-out: 5-HT6 Ki) was 293 ± 73 nM.

Molecule `O=S(=O)(NC1=Nc2ccc(C(F)(F)F)cc2CN1)c1cccc2ccccc12` [PR 57, N -[6-(trifluoromethyl)-3,4-dihydroquinazolin-2-yl]naphthalene-1-sulfonamide] registered a melting point of 215 to 222 °C. Also, the inhibition constant (Ki) at human 5-HT6 (read-out: 5-HT6 Ki) amounted to 1020 ± 235 nM.

`CC1NC(NS(=O)(=O)c2ccccc2)=Nc2ccccc21` (centres unmarked) [PR 28, N -(4-methyl-3,4-dihydroquinazolin-2-yl)benzenesulfonamide]: the Ki on human 5-HT6 (read-out: 5-HT6 Ki) is 4030 ± 1010 nM.

As for “N -(3,4-dihydroquinazolin-2-yl)naphthalene-2-sulfonamide [PR 39]”, the Ki at human 5-HT6 (read-out: 5-HT6 Ki) was 4270 ± 983 nM.
